# Assay results reported in patent US8258151B2, “3-aminoimidazo [1,2-A] pyridine derivatives as SGLT inhibitors” (Merck Patent GmbH, priority 2006, dated 2012).
# Key:
# SGLT2 = target: T1, SGLT2 (Homo sapiens, UniProt P31639); assay: SGLT2 activity measurement: 14C-AMG uptake in BHK cells transfected with SGLT2; type: cell-based; conditions: AMG 2 mM, 37° C., 90 min
# T1 construct: expressed in transfected cells
# T1 sequence (P31639 1-672): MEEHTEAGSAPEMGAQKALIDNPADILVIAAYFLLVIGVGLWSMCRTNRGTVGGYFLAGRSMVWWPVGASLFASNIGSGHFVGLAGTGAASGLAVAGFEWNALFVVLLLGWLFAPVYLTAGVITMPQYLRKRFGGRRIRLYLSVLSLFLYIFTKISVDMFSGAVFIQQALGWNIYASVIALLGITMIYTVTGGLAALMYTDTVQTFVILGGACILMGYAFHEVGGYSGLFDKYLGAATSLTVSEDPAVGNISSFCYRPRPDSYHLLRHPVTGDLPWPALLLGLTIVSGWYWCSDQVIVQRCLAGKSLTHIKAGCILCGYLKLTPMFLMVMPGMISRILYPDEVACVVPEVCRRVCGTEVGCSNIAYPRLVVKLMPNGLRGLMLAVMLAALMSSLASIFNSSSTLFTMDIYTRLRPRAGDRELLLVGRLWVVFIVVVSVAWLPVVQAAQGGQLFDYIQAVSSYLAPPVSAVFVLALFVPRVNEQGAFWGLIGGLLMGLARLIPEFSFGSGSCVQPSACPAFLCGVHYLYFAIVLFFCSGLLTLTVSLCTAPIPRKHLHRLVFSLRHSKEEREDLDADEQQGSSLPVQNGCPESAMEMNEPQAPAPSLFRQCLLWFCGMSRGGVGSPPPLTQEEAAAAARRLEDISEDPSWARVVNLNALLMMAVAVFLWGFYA
# How it was run: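 BHK21 cells stably expressing human SGLT2 took up 14C-AMG (added as 2 mM solution) ± compound for 90 min at 37 °C in Na+-containing HEPES/Tris buffer, pH 7.4. Uptake was measured by scintillation counting after lysis. Non-specific uptake was defined in sodium-free sucrose buffer.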
# SGLT1 = target: T2, SGLT1 (Homo sapiens, UniProt P13866); assay: SGLT1 activity measurement: 14C-AMG uptake in BHK cells transfected with SGLT1; type: cell-based; conditions: AMG 50 μM, 37° C., 90 min
# T2 construct: expressed in transfected cells
# T2 sequence (P13866 1-664): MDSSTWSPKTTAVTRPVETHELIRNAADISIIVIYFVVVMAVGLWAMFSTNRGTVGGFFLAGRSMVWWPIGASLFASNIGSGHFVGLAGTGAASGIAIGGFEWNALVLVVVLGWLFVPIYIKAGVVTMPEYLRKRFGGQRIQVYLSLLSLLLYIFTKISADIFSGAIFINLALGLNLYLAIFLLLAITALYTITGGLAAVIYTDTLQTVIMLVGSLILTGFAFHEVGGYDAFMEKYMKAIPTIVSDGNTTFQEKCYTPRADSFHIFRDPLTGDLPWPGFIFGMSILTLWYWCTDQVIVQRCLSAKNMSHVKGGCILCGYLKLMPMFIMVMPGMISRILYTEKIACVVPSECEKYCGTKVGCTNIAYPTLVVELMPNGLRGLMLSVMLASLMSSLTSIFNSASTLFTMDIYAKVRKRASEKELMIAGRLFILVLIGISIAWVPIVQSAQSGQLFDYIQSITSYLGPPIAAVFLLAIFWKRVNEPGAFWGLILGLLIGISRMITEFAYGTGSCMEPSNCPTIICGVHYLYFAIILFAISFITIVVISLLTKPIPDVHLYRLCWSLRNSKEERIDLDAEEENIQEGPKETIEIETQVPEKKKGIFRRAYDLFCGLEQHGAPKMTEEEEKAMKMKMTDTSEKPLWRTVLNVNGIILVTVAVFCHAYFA
# How it was run: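 BHK21 cells stably transfected with human SLC5A1 were incubated with 14C-AMG (added solution at 50 μM) ± compound for 90 min at 37 °C. The buffer was 140 mM NaCl, HEPES/Tris, pH 7.4. Lysed-cell radioactivity was counted by scintillation, and non-specific uptake was measured in sodium-free sucrose buffer.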
SMILES,IC50 (SGLT2) [nM],IC50 (SGLT1) [nM]
"CCc1cc(OC)cc(OCC(N)=O)c1-c1nc2ccc(F)cn2c1Nc1c(C)cc(C(=O)OC)cc1C [Compound A245, 2-[2-(Aminocarbonylmethoxy)-4-methoxy-6-ethylphenyl]-3-(2,6-dimethyl-4-methoxycarbonyl-phenylamino)-6-fluoroimidazo[1,2-a]pyridine]",1000 to 10000,> 10000
"COC(=O)c1cccc(C)c1Nc1c(-c2c(C)cc(OC)cc2OCC(N)=O)nc2ccc(F)cn12 [Compound A246, 2-[2-(Aminocarbonylmethoxy)-4-methoxy-6-methylphenyl]-3-(2-methyl-6-methoxycarbonyl-phenylamino)-6-fluoroimidazo[1,2-a]pyridine]",1000 to 10000,> 10000
"COc1cc(C)c(-c2nc3ccc(F)cn3c2Nc2c(C)cc(Br)c(C)c2Br)c(OCC(N)=O)c1 [Compound A249, 2-[2-(Aminocarbonylmethoxy)-4-methoxy-6-methylphenyl]-3-(2,5-dimethyl-4,6-dibromophenylamino)-6-fluoroimidazo[1,2-a]-pyridine]",1000 to 10000,1000 to 10000
"COc1cc(C)c(-c2nc3ccc(F)cn3c2Nc2c(F)cc(Br)cc2F)c(OCC(N)=O)c1 [Compound A252, 2-[2-(Aminocarbonylmethoxy)-4-methoxy-6-methylphenyl]-3-(2,6-difluoro-4-bromophenyl-amino)-6-fluoroimidazo[1,2-a]pyridine]",1000 to 10000,1000 to 10000
"COc1cc(C)c(-c2nc3ccc(F)cn3c2Nc2c(C)cc([N+](=O)[O-])cc2C)c(OCC(N)=O)c1 [Compound A254, 2-[2-(Aminocarbonylmethoxy)-4-methoxy-6-methylphenyl]-3-(2,6-dimethyl-4-nitrophenyl-amino)-6-fluoroimidazo[1,2-a]pyridine]",10 to 1000,> 10000
"CCc1cc(OC)cc(OCC(N)=O)c1-c1nc2c(F)cc(F)cn2c1Nc1c(C)cc(F)cc1C [Compound A255, 2-[2-(Aminocarbonylmethoxy)-4-methoxy-6-ethylphenyl]-3-(2,6-dimethyl-4-fluorophenyl-amino)-6,8-difluoroimidazo[1,2-a]pyridine]",10 to 1000,1000 to 10000
"COc1cc(C)c(-c2nc3ccc(F)cn3c2Nc2c(C)cccc2Cl)c(OCC(N)=O)c1 [Compound A256, 2-[2-(Aminocarbonylmethoxy)-4-methoxy-6-methylphenyl]-3-(2-chloro-6-methylphenyl-amino)-6-fluoroimidazo[1,2-a]pyridine]",10 to 1000,1000 to 10000
"CCc1cc(OC)cc(OCC(N)=O)c1-c1nc2ccc(F)cn2c1Nc1c(C)cccc1Cl [Compound A257, 2-[2-(Aminocarbonylmethoxy)-4-methoxy-6-ethylphenyl]-3-(2-chloro-6-methylphenylamino)-6-fluoroimidazo[1,2-a]pyridine]",10 to 1000,1000 to 10000

# Results, then the compound that gave them:
IC50 (SGLT2) [nM],IC50 (SGLT1) [nM],SMILES
10 to 1000,1000 to 10000,"CCc1cccc(OCC(N)=O)c1-c1nc2ccc(F)cn2c1Nc1c(C)cccc1C [Compound A240, 2-[2-(Aminocarbonylmethoxy)-6-ethylphenyl]-3-(2,6-dimethylphenylamino)-6-fluoroimidazo-[1,2-a]pyridine]"
10 to 1000,10 to 1000,"CCc1cccc(OCC(N)=O)c1-c1nc2ccc(F)cn2c1Nc1c(Cl)cccc1Cl [Compound A241, 2-[2-(Aminocarbonylmethoxy)-6-ethylphenyl]-3-(2,6-dichlorophenylamino)-6-fluoroimidazo-[1,2-a]pyridine]"
10 to 1000,1000 to 10000,"COc1cc(C)c(-c2nc3ccc(F)cn3c2Nc2c(F)cccc2C(F)(F)F)c(OCC(N)=O)c1 [Compound A242, 2-[2-(Aminocarbonylmethoxy)-4-methoxy-6-methylphenyl]-3-(2-fluoro-6-trifluoromethyl-phenylamino)-6-fluoroimidazo[1,2-a]pyridine]"
10 to 1000,1000 to 10000,"COc1cc(C)c(-c2nc3ccc(F)cn3c2Nc2c(F)cccc2Br)c(OCC(N)=O)c1 [Compound A243, 2-[2-(Aminocarbonylmethoxy)-4-methoxy-6-methylphenyl]-3-(2-fluoro-6-bromophenylamino)-6-fluoroimidazo[1,2-a]pyridine]"
10 to 1000,1000 to 10000,"COc1cc(C)c(-c2nc3ccc(F)cn3c2Nc2c(F)cc(F)cc2F)c(OCC(N)=O)c1 [Compound A244, 2-[2-(Aminocarbonylmethoxy)-4-methoxy-6-methylphenyl]-3-(2,4,6-trifluorophenylamino)-6-fluoroimidazo[1,2-a]pyridine]"
10 to 1000,> 10000,"CCc1cc(OC)cc(OCC(N)=O)c1-c1nc2ccc(F)cn2c1Nc1c(C)cccc1C(F)(F)F [Compound A247, 2-[2-(Aminocarbonylmethoxy)-4-methoxy-6-ethylphenyl]-3-(2-methyl-6-trifluoromethylphenyl-amino)-6-fluoroimidazo[1,2-a]pyridine]"
10 to 1000,> 10000,"COc1cc(C)c(-c2nc3ccc(F)cn3c2Nc2c(F)cccc2Cl)c(OCC(N)=O)c1 [Compound A248, 2-[2-(Aminocarbonylmethoxy)-4-methoxy-6-methylphenyl]-3-(2-fluoro-6-chlorophenylamino)-6-fluoroimidazo[1,2-a]pyridine]"
10 to 1000,> 10000,"COc1cc(C)c(-c2nc3ccc(F)cn3c2Nc2c(C)cc(C)cc2[N+](=O)[O-])c(OCC(N)=O)c1 [Compound A250, 2-[2-(Aminocarbonylmethoxy)-4-methoxy-6-methylphenyl]-3-(2,4-dimethyl-6-nitrophenyl-amino)-6-fluoroimidazo[1,2-a]pyridine]"
10 to 1000,1000 to 10000,"COc1cc(C)c(-c2nc3c(F)cc(F)cn3c2Nc2c(C)cc(F)cc2C)c(OCC(N)=O)c1 [Compound A251, 2-[2-(Aminocarbonylmethoxy)-4-methoxy-6-methylphenyl]-3-(2,6-dimethyl-4-fluorophenyl-amino)-6,8-difluoroimidazo[1,2-a]pyridine]"
